We go through 43 compounds from ChEMBL document CHEMBL6127128, “Discovery of the First-in-Class Dual-Target ROCK/HDAC Inhibitor with Potent Antitumor Efficacy in Vivo That Trigger Antitumor Immunity” (J Med Chem, 2024).

Active and inactive are the calls of the source. The rule behind the calls is not given here.

The test system of one assay is MDA-MB-231. In words: Cytotoxicity against human MDA-MB-231 cells assessed as reduction in cell viability incubated for 72 hrs by SRB assay. Type of assay: functional, cell-based. The note with it: MDA-MB-231, 72 h.
In assay [1] the target is Rho-associated protein kinase 1 (Homo sapiens, UniProt Q13464). The experiment in a line: Inhibition of N-terminal GST-tagged human recombinant ROCK1 (17 to 535 residues) expressed in baculovirus-infected Sf9 cells by HTRF KinEASE assay. Background: TR-FRET usually uses a lanthanide donor and a delayed reading to cut background.
Assay [2] concerns the target Rho-associated protein kinase 2 (Homo sapiens, UniProt O75116). The experiment in a line: Inhibition of N-terminal GST-tagged human recombinant wild type ROCK2 (1 to 553 residues) expressed in baculovirus-infected Sf21 cells by HTRF KinEASE assay.
Assay [3] deals with 4T1. The experiment in a line: Cytotoxicity against mouse 4T1 cells assessed as reduction in cell viability. Type of assay: functional, cell-based.
The subject of assay [4] is 4T1. The experiment in a line: Antitumor immunity against mouse 4T1 cells implanted in Balb/c mouse assessed as increase in CD3+ T cells in tumor tissue at 50 mg/kg, po administered daily for 15 days by flow cytometry. The note with it: time 15.0 day. The assay is classed as functional, organism-based. For orientation: In flow cytometry, cells or beads pass a laser one at a time.

Assay [5] concerns 4T1. The experiment in a line: Antitumor immunity against mouse 4T1 cells implanted in Balb/c mouse assessed as increase in CD4+ T cells in tumor tissue at 50 mg/kg, po administered daily for 15 days by flow cytometry. The assay is classed as functional, organism-based. The note with it: time 15.0 day.
The test system of assay [6] is 4T1. The experiment in a line: Antitumor immunity against mouse 4T1 cells implanted in Balb/c mouse assessed as increase in CD8+ T cells in tumor tissue at 50 mg/kg, po administered daily for 15 days by flow cytometry. Type of assay: functional, organism-based. The note with it: time 15.0 day.

Sequence of Rho-associated protein kinase 2 (O75116 whole entry, the tested form may be a part): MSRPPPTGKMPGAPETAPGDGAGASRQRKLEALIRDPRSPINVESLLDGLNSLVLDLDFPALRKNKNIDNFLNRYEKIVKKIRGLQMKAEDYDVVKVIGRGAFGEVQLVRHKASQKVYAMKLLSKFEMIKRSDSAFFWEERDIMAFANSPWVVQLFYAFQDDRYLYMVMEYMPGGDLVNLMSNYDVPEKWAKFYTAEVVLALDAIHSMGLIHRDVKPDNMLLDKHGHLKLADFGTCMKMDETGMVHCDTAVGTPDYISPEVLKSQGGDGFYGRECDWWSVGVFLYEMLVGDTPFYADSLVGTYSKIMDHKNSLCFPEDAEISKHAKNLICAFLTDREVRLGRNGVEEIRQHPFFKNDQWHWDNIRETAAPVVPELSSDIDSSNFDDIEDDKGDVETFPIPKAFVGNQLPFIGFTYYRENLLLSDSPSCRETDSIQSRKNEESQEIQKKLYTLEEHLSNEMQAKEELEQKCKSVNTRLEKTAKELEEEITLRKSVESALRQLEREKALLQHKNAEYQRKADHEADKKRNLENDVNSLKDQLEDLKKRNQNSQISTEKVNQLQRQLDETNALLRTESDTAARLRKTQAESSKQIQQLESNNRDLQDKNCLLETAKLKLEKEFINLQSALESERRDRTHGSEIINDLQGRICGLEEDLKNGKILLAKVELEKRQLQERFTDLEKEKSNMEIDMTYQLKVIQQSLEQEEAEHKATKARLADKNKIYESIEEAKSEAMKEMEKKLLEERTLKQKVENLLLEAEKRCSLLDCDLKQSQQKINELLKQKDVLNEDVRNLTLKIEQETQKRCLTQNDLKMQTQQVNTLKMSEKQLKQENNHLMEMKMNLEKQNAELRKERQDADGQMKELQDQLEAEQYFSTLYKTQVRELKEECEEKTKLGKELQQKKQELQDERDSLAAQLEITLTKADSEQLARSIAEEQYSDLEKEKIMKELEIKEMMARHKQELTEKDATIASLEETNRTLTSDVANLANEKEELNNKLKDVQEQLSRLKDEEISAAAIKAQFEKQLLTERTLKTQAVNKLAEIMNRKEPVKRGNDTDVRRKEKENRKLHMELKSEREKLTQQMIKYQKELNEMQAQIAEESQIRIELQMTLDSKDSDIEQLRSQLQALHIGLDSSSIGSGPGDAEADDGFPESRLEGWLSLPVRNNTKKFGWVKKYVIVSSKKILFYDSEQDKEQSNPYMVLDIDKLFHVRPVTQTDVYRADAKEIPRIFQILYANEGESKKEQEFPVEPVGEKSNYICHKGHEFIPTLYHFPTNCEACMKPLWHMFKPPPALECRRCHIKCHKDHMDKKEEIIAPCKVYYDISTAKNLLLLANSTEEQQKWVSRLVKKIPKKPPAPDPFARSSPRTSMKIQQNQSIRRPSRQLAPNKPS

Turning to `O=C(CCCCCCNC(=O)c1cc2ccc(-c3cn[nH]c3)cc2s1)NO`, the IC50 in the assay on MDA-MB-231 was found to be 1260 nM.
Regarding `COc1cccc(CNC(=O)c2cc3cc(-c4cn[nH]c4)ccc3s2)c1`, the “inhibition (active/inactive call)” value in assay [1] was “Active”. In addition, in assay [2], the IC50 turned out to be 6.75 nM.
For the compound `O=C(CCCCCCCNC(=O)c1cc2c(-c3cn[nH]c3)cccc2s1)NO`, the IC50 in the assay on MDA-MB-231 is more than 10000 nM.
For `COc1cccc(CNC(=O)c2cc3ccc(-c4ccncc4)cc3s2)c1`, the “inhibition (active/inactive call)” value in assay [1] is “Active”. For the same compound, the IC50 in assay [2] was determined as 296 nM.
As for `COc1cccc(CNC(=O)c2cc3ccc(-c4ccc5[nH]ncc5c4)cc3s2)c1`, the IC50 in assay [2] was more than 1000 nM.
In the case of `O=C(CCCCCNC(=O)c1cc2c(-c3ccncc3)cccc2s1)NO`, the IC50 with MDA-MB-231 was more than 10000 nM.
In the case of `O=C(CCCCCNC(=O)c1cc2ccc(-c3cn[nH]c3)cc2s1)NO`, the IC50 in the assay with MDA-MB-231 is more than 10000 nM.
For `O=C(CCCCCCCNC(=O)c1cc2ccc(-c3cn[nH]c3)cc2s1)NO`, the IC50 in the assay with MDA-MB-231 amounted to 760 nM.
The same measure, in the same setting: then `O=C(CCCCCCNC(=O)c1cc2c(-c3ccncc3)cccc2s1)NO`, with 2900 nM.
With `COc1cccc(CN(CCN(C)C)C(=O)c2nc3ccc(-c4cn[nH]c4)cc3s2)c1`, in assay [2], the half-inhibitory concentration (IC50) is less than 1 nM.
Consider `O=C(CCCCCCNC(=O)c1cc2ccc(-c3ccncc3)cc2s1)NO`, for which the IC50 with MDA-MB-231 is 950 nM.
For the compound `COc1cccc(CNC(=O)c2cc3c(-c4cn[nH]c4)cccc3s2)c1`, the IC50 in assay [2] was more than 1000 nM.
Take `O=C(CCCCCCCNC(=O)c1cc2ccc(-c3ccncc3)cc2s1)NO`: the IC50 in assay [1] is more than 1000 nM; in assay [2], more than 1000 nM; in the assay with MDA-MB-231 it was 460 nM.
In the case of `O=C(CCCCCNC(=O)c1cc2cccc(-c3ccncc3)c2s1)NO`, the IC50 in the assay on MDA-MB-231 is more than 10000 nM.
The same measure, in the same setting: then `O=C(CCCCCCNC(=O)c1cc2cccc(-c3cn[nH]c3)c2s1)NO`, with 9050 nM.
Take `COc1cccc(CNC(=O)c2cc3cc(-c4cccc5cnccc45)ccc3s2)c1`: the half-inhibitory concentration (IC50) in assay [2] is more than 1000 nM.
`O=C(CCCCCCCNC(=O)c1cc2cccc(-c3ccncc3)c2s1)NO`: in the assay on MDA-MB-231, the IC50 is more than 10000 nM.
On to `COc1cccc(CNC(=O)c2cc3c(-c4ccc5[nH]ncc5c4)cccc3s2)c1`, for which the IC50 in assay [2] is more than 1000 nM.
As to `O=C(CCCCCCCNC(=O)c1cc2cc(-c3ccncc3)ccc2s1)NO`, the half-inhibitory concentration (IC50) in assay [1] was more than 1000 nM; in assay [2], more than 1000 nM; in the assay with MDA-MB-231 it was 420 nM.
With `O=C(CCCCCCNC(=O)c1cc2cc(-c3ccncc3)ccc2s1)NO`, the IC50 in assay [1] was more than 1000 nM; in assay [2], more than 1000 nM; in the assay on MDA-MB-231, 130 nM.
Take `O=C(CCCCCNC(=O)c1cc2cc(-c3cn[nH]c3)ccc2s1)NO`: the IC50 with MDA-MB-231 is more than 10000 nM.
Consider `COc1cccc(CNC(=O)c2cc3ccc(-c4cccc5cnccc45)cc3s2)c1`, for which the IC50 in assay [2] was more than 1000 nM.
With `O=C(CCCCCCCNC(=O)c1cc2c(-c3ccncc3)cccc2s1)NO`, the half-maximal inhibitory concentration (IC50) in the assay on MDA-MB-231 was more than 10000 nM.
`COc1cccc(CNC(=O)c2cc3c(-c4cccc5cnccc45)cccc3s2)c1`: the IC50 in assay [2] is more than 1000 nM.
Take `C[C@@H](N)[C@H]1CC[C@H](C(=O)Nc2ccncc2)CC1` [Y-27632]: the half-inhibitory concentration (IC50) in the assay with MDA-MB-231 and in the assay on 4T1 [3] was more than 10000 nM each time.
For `COc1cccc(CNC(=O)c2cc3c(-c4ccncc4)cccc3s2)c1`, the IC50 in assay [2] was more than 1000 nM.
On the same count and under the same terms, then `COc1cccc(CNC(=O)c2cc3cccc(-c4cccc5cnccc45)c3s2)c1`, with more than 1000 nM; and `COc1cccc(CNC(=O)c2cc3cccc(-c4ccncc4)c3s2)c1`, with more than 1000 nM.
As for `O=C(CCCCCCCNC(=O)c1cc2cc(-c3cn[nH]c3)ccc2s1)NO`, the IC50 in the assay with MDA-MB-231 was 6420 nM.
`COc1cccc(CNC(=O)c2cc3cccc(-c4ccc5[nH]ncc5c4)c3s2)c1`: in assay [2], the IC50 is more than 1000 nM.
With `O=C(CCCCCNC(=O)c1cc2cc(-c3ccncc3)ccc2s1)NO`, the IC50 in the assay with MDA-MB-231 was more than 10000 nM.
The same measure, in the same setting: then `O=C(CCCCCCNC(=O)c1cc2c(-c3cn[nH]c3)cccc2s1)NO`, with more than 10000 nM.
On to `O=C(CCCCCCC(=O)Nc1ccccc1)NO` [VORINOSTAT], for which the IC50 with MDA-MB-231 worked out at 660 nM. The outcome in the assay with 4T1 [4], in the assay with 4T1 [5] and in the assay on 4T1 [6] was Active.
As to `O=C(CCCCCCCNC(=O)c1cc2cccc(-c3cn[nH]c3)c2s1)NO`, the IC50 in the assay on MDA-MB-231 is more than 10000 nM.
For the compound `COc1cccc(CNC(=O)c2cc3cccc(-c4cn[nH]c4)c3s2)c1`, the “inhibition (active/inactive call)” value in assay [1] was “Active”. The IC50 in assay [2] was determined as 225 nM.
Turning to `O=C(CCCCCNC(=O)c1cc2c(-c3cn[nH]c3)cccc2s1)NO`, the IC50 with MDA-MB-231 was 3210 nM.
Consider `O=C(CCCCCNC(=O)c1cc2cccc(-c3cn[nH]c3)c2s1)NO`, for which the IC50 in the assay on MDA-MB-231 was more than 10000 nM.
For `O=C(CCCCCCNC(=O)c1cc2cccc(-c3ccncc3)c2s1)NO`, the IC50 in the assay on MDA-MB-231 was determined as 1540 nM.
For `CN[C@@H]1C[C@H](c2ccc3c(c2O)C(=O)c2c(C)sc(C(C)=O)c2C3=O)O[C@H](C)[C@H]1O`, the IC50 in assay [2] was determined as 8890 nM.
Consider `COc1cccc(CNC(=O)c2cc3cc(-c4ccc5[nH]ncc5c4)ccc3s2)c1`, for which the IC50 in assay [2] was more than 1000 nM.
In the case of `COc1cccc(CNC(=O)c2cc3ccc(-c4cn[nH]c4)cc3s2)c1`, the “inhibition (active/inactive call)” value in assay [1] is “Active”. The IC50 in assay [2] is 7.94 nM.
On to `O=C(CCCCCNC(=O)c1cc2ccc(-c3ccncc3)cc2s1)NO`, for which the IC50 with MDA-MB-231 is more than 10000 nM.
In the case of `COc1cccc(CNC(=O)c2cc3cc(-c4ccncc4)ccc3s2)c1`, the IC50 in assay [2] was more than 1000 nM.

What is called IC50 is the concentration that gives 50% inhibition.
